For one molecule, Km results are on record in paper PMC9045388, “Identification of a KPC Variant Conferring Resistance to Ceftazidime-Avibactam from ST11 Carbapenem-Resistant Klebsiella pneumoniae Strains” (Microbiology Spectrum, 2022).

This assay deals with T1, KPC-2 (Klebsiella pneumoniae, UniProt Q9F663).
T1 construct: untagged, full gene in pCR-BluntII-Topo (pTOPO-KPC-2), expressed in E. coli TOP10; ion exchange and gel filtration
Description: steady-state hydrolysis, UV-Vis at […] nm. In kind it is biochemical. As to conditions: 100 mM sodium phosphate, pH 7.0.

T1 sequence (Q9F663 25-293 limits assumed): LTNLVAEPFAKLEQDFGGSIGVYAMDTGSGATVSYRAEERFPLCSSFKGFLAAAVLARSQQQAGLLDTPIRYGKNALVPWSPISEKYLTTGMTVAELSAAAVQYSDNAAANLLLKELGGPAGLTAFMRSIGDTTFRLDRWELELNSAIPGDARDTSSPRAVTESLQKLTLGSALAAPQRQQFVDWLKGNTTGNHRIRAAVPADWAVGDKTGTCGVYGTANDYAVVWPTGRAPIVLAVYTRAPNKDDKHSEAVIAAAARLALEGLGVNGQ

Usually Km stands for the concentration of substrate that gives half-maximal velocity. Consider `O=C(Cc1cccs1)N[C@@H]1C(=O)N2C(C(=O)O)=C(/C=C/c3ccc([N+](=O)[O-])cc3[N+](=O)[O-])CS[C@H]12` [nitrocefin], for which the Km was found to be 17.9 µM.
